From ChEMBL document CHEMBL1201862, “PubChem BioAssay data set” (2004)
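48-hour exposure; five concentrations; linearly interpolated endpoints. Here, GI50 denotes the concentration required for 50% inhibition of growth.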 The source made the active and inactive calls. Cut-off read from the data, not from the text of the source: active = GI50 up to about 1.1 µM and inactive = higher.

Columns and labels:
Test in all cases: NCI anticancer screen, dose series, 48 h
A498 = system: A498
ACHN = system: ACHN
BT-549 = system: BT-549
CAKI-1 = system: CAKI-1
HCT-15 = system: HCT-15
HL-60 = system: HL-60
HOP-62 = system: HOP-62
HT-29 = system: HT-29
K562 = system: K562
LOX IMVI = system: LOX IMVI
M14 = system: M14
MDA-N = system: MDA-N
Malme-3M = system: Malme-3M
NCI-H23 = system: NCI-H23
SF-268 = system: SF-268
SNB-19 = system: SNB-19
U-251 = system: U-251
UACC-62 = system: UACC-62
UO-31 = system: UO-31
RPMI-8226 = system: RPMI-8226

SMILES	GI50 (A498)	GI50 (ACHN)	GI50 (BT-549)	GI50 (CAKI-1)	GI50 (HCT-15) [µM]	GI50 (HL-60)	GI50 (HOP-62)	GI50 (HT-29)	GI50 (K562)	GI50 (LOX IMVI)	GI50 (M14)	GI50 (MDA-N)	GI50 (Malme-3M)	GI50 (NCI-H23)	GI50 (SF-268)	GI50 (SNB-19)	GI50 (U-251)	GI50 (UACC-62)	GI50 (UO-31)	GI50 (RPMI-8226)
CCn1c2ccccc2c2cc(NC(=O)c3c(C)nc(O)nc3NCCNCCO)ccc21	> 100 µM (inactive)	> 100 µM (inactive)	> 100 µM (inactive)	> 100 µM (inactive)	> 100	1.58 µM (inactive)	> 100 µM (inactive)	> 100 µM (inactive)	> 100 µM (inactive)	> 100 µM (inactive)	> 100 µM (inactive)	> 100 µM (inactive)	> 100 µM (inactive)	> 100 µM (inactive)	> 100 µM (inactive)	> 100 µM (inactive)	> 100 µM (inactive)	> 100 µM (inactive)	> 100 µM (inactive)	
CN1c2ccccc2S(=O)(=O)n2c(CCc3ccccc3)nnc21	39.1 µM (inactive)	> 100 µM (inactive)	> 100 µM (inactive)	44.1 µM (inactive)	> 100	> 100 µM (inactive)	41.2 µM (inactive)	> 100 µM (inactive)	> 100 µM (inactive)	> 100 µM (inactive)	> 100 µM (inactive)	> 100 µM (inactive)		> 100 µM (inactive)	> 100 µM (inactive)	> 100 µM (inactive)	> 100 µM (inactive)	> 100 µM (inactive)	> 100 µM (inactive)	
COc1ccc(NC(=S)NC(=O)c2ccc3c(c2)Sc2ccccc2O3)c([N+](=O)[O-])c1	18.5 µM (inactive)	21.4 µM (inactive)	37.1 µM (inactive)	39.1 µM (inactive)	24	32.7 µM (inactive)	33 µM (inactive)	76.6 µM (inactive)	64.1 µM (inactive)	> 100 µM (inactive)	39.1 µM (inactive)	44.5 µM (inactive)	14.4 µM (inactive)	83.2 µM (inactive)	19.4 µM (inactive)	21.9 µM (inactive)	20.2 µM (inactive)	30.3 µM (inactive)	25.6 µM (inactive)	
CC(=O)OCC1OC(n2c(-c3cccs3)c3c(c(C#N)c2=S)-c2ccccc2CC3)C(OC(C)=O)C(OC(C)=O)C1OC(C)=O (configuration not stated)	7.66 µM (inactive)	9.64 µM (inactive)	11.7 µM (inactive)	9.59 µM (inactive)	8.26	2.64 µM (inactive)	11.9 µM (inactive)	5.31 µM (inactive)	4.37 µM (inactive)	6.82 µM (inactive)	7.67 µM (inactive)		7.36 µM (inactive)	19.5 µM (inactive)	14.9 µM (inactive)	13 µM (inactive)	10.1 µM (inactive)	4.17 µM (inactive)	2.97 µM (inactive)	3.28 µM (inactive)
CC(C)N1CC2CN(Cc3ccccc3)CC(C1)C2=O		> 100 µM (inactive)	> 100 µM (inactive)	> 100 µM (inactive)	> 100	> 100 µM (inactive)	> 100 µM (inactive)	> 100 µM (inactive)	> 100 µM (inactive)	> 100 µM (inactive)	> 100 µM (inactive)	> 100 µM (inactive)	> 100 µM (inactive)	> 100 µM (inactive)	> 100 µM (inactive)	> 100 µM (inactive)	> 100 µM (inactive)	> 100 µM (inactive)	> 100 µM (inactive)	> 100 µM (inactive)
N#CC(c1ccccc1)N(CCc1ccccc1)C(=O)c1ccc(C(=O)N(CCc2ccccc2)C(C#N)c2ccccc2)cc1 (configuration not stated)	30.5 µM (inactive)	24 µM (inactive)	14.5 µM (inactive)	30.6 µM (inactive)	18.6	22.9 µM (inactive)		19 µM (inactive)	20.9 µM (inactive)	17.9 µM (inactive)	24.4 µM (inactive)	24 µM (inactive)	19.3 µM (inactive)	25.5 µM (inactive)	22 µM (inactive)	30.5 µM (inactive)	24.3 µM (inactive)	15.5 µM (inactive)	19.4 µM (inactive)	
CC(C)(C)OC(=O)N(CCCCN(CCCNC(=O)C(F)(F)F)C(=O)OC(C)(C)C)CCCNC(=O)C(F)(F)F	> 100 µM (inactive)	> 100 µM (inactive)	> 100 µM (inactive)	47.1 µM (inactive)	> 100	60.3 µM (inactive)	38.7 µM (inactive)	> 100 µM (inactive)	98.9 µM (inactive)	> 100 µM (inactive)	> 100 µM (inactive)			> 100 µM (inactive)	> 100 µM (inactive)	> 100 µM (inactive)	> 100 µM (inactive)	> 100 µM (inactive)	> 100 µM (inactive)	37.7 µM (inactive)
Cc1c2c3cc(O)ccc3nc-2n(C)c2ccccc12		0.479 µM (active)	1.92 µM (inactive)		1.81	2.34 µM (inactive)	1.5 µM (inactive)	1.1 µM (active)	0.818 µM (active)		1.58 µM (inactive)	2.07 µM (inactive)	1.48 µM (inactive)	2.24 µM (inactive)	1.62 µM (inactive)	1.83 µM (inactive)	0.838 µM (active)	1.39 µM (inactive)	0.857 µM (active)	2.34 µM (inactive)
